Assay results published in ChEMBL document CHEMBL5291721, “A preclinical secondary pharmacology resource illuminates target-adverse drug reaction associations of marketed drugs” (Nat Commun, 2023).

Legend:
Thromboxane A2 receptor = target: T1, Thromboxane A2 receptor (Homo sapiens, UniProt P21731); assay type: functional, cell-based
T1 sequence (P21731 whole entry): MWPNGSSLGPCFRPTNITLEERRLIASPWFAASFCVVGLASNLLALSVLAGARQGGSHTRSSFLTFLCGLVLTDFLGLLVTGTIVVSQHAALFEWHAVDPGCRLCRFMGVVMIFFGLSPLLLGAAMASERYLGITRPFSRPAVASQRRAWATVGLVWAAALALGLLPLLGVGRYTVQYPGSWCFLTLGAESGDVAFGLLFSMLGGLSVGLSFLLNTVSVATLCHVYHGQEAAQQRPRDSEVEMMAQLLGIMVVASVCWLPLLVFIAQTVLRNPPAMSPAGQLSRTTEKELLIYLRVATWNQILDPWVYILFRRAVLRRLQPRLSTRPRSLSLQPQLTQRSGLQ

[1] = target: T2, 5-hydroxytryptamine receptor 1A (Homo sapiens, UniProt P08908)
T2 sequence (P08908 whole entry): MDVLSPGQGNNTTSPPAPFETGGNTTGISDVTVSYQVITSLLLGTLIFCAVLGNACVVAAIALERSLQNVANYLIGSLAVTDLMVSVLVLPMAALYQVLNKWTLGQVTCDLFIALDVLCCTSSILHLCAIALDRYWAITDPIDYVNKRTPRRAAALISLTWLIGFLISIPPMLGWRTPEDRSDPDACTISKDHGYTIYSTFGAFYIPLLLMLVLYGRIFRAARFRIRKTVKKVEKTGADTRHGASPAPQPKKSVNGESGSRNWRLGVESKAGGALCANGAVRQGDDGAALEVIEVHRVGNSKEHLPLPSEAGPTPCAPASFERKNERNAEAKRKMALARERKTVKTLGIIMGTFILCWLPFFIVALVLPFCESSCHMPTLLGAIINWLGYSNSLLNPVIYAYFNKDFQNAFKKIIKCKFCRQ

Acetylcholinesterase = Acetylcholinesterase (Homo sapiens, UniProt P22303); assay type: functional
Chain of Acetylcholinesterase (P22303 whole entry): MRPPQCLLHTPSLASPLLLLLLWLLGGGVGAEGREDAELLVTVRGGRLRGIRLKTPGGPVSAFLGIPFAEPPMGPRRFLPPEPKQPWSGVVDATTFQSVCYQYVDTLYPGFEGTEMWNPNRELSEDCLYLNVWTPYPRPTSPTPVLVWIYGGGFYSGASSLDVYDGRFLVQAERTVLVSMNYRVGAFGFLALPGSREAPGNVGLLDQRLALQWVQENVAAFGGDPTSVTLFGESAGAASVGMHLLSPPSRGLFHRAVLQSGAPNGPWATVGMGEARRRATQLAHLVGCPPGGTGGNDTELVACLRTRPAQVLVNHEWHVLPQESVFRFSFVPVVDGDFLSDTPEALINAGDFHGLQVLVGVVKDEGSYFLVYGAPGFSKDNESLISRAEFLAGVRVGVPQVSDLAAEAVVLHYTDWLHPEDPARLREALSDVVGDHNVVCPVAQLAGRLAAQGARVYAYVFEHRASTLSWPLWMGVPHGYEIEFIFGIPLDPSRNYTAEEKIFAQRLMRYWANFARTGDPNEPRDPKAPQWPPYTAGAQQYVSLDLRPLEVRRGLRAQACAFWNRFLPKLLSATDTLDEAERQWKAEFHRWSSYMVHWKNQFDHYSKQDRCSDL

B2 bradykinin receptor = target: T3, B2 bradykinin receptor (Homo sapiens, UniProt P30411)
T3 sequence (P30411 whole entry): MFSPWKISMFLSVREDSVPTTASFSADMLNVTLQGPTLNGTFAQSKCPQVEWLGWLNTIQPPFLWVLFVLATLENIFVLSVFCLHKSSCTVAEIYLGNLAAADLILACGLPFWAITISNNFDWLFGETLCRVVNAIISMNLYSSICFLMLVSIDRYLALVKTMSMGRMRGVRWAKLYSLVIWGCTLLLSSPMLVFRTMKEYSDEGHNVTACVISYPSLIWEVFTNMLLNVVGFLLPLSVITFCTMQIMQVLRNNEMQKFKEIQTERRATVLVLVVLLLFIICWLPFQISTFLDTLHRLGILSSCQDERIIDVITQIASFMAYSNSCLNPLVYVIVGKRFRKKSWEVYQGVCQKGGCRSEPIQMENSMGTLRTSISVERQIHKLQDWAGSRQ

D(3) dopamine receptor = D(3) dopamine receptor (Homo sapiens, UniProt P35462)
Chain of D(3) dopamine receptor (P35462 whole entry): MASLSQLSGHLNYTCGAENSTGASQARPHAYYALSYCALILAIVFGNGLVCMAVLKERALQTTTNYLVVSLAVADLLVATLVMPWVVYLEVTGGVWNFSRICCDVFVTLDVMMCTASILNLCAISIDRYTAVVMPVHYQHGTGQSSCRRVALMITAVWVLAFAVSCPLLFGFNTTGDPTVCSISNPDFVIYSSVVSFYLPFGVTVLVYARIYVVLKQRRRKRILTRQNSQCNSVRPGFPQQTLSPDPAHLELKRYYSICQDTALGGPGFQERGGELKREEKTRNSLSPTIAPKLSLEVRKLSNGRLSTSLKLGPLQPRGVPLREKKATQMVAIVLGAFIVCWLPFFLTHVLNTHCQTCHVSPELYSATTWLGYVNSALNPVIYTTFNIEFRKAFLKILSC

[2] = target: T4, 5-hydroxytryptamine receptor 2C (Homo sapiens, UniProt P28335)
T4 sequence (P28335 whole entry): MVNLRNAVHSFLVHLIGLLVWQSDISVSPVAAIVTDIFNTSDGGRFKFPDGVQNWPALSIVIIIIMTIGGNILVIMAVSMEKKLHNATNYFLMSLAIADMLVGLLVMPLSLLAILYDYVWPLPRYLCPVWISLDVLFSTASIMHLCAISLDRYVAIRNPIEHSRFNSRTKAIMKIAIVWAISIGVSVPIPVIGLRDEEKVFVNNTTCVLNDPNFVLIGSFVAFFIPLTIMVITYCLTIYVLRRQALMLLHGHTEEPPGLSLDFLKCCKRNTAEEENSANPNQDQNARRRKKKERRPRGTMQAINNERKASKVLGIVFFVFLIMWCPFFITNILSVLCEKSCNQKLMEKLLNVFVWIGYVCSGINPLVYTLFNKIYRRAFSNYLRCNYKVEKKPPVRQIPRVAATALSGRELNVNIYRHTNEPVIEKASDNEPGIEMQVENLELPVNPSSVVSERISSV

[3] = target: Prostaglandin G/H synthase 1 (Homo sapiens, UniProt P23219); assay type: functional
Chain of Prostaglandin G/H synthase 1 (P23219 whole entry): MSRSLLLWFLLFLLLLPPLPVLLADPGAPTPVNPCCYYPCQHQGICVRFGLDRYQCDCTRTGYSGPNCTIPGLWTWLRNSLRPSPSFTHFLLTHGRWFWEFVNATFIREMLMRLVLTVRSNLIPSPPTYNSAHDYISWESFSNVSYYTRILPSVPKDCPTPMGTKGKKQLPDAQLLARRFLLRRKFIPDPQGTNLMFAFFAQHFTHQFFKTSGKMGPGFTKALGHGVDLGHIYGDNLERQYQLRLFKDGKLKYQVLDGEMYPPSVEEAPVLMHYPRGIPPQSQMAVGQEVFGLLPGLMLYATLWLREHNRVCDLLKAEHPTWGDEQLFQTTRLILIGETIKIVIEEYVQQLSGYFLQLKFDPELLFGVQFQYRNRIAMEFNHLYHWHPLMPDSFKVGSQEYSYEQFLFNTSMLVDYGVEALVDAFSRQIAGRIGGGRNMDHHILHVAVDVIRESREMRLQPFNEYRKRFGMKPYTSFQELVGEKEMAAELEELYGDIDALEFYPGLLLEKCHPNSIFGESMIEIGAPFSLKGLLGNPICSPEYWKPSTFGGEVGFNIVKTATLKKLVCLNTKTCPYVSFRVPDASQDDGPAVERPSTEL

[4] = target: T5, Muscarinic acetylcholine receptor M2 (Homo sapiens, UniProt P08172)
T5 sequence (P08172 whole entry): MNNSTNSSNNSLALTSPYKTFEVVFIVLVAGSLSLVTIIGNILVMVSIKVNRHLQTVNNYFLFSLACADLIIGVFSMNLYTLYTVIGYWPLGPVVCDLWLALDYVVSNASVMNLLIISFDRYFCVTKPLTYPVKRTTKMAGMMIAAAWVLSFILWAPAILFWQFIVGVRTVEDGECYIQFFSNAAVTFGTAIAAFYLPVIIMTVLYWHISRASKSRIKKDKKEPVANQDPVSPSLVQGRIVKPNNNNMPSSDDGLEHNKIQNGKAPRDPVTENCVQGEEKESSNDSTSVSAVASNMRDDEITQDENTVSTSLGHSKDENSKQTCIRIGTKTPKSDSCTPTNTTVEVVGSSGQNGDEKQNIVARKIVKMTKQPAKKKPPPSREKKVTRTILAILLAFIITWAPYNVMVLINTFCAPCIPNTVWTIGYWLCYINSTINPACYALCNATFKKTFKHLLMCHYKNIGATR

[5] = target: T6, Amine oxidase [flavin-containing] A (Homo sapiens, UniProt P21397); assay type: functional
T6 sequence (P21397 whole entry): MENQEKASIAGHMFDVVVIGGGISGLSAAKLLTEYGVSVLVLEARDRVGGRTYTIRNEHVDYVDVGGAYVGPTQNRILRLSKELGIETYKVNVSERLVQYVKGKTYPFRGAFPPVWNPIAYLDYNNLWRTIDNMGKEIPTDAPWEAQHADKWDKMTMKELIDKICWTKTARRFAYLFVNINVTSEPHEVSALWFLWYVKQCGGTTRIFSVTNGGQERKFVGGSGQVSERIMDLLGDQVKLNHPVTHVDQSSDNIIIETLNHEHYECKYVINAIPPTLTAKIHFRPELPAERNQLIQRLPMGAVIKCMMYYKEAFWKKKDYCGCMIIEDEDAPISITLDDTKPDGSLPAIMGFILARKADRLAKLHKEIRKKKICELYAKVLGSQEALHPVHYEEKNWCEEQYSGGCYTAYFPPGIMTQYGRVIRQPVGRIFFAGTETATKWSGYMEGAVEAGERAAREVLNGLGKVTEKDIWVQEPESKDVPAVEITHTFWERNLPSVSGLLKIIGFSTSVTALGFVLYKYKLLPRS

[6] = target: 3',5'-cyclic-AMP phosphodiesterase 4A (Homo sapiens, UniProt P27815); assay type: functional
Chain of 3',5'-cyclic-AMP phosphodiesterase 4A (P27815 whole entry): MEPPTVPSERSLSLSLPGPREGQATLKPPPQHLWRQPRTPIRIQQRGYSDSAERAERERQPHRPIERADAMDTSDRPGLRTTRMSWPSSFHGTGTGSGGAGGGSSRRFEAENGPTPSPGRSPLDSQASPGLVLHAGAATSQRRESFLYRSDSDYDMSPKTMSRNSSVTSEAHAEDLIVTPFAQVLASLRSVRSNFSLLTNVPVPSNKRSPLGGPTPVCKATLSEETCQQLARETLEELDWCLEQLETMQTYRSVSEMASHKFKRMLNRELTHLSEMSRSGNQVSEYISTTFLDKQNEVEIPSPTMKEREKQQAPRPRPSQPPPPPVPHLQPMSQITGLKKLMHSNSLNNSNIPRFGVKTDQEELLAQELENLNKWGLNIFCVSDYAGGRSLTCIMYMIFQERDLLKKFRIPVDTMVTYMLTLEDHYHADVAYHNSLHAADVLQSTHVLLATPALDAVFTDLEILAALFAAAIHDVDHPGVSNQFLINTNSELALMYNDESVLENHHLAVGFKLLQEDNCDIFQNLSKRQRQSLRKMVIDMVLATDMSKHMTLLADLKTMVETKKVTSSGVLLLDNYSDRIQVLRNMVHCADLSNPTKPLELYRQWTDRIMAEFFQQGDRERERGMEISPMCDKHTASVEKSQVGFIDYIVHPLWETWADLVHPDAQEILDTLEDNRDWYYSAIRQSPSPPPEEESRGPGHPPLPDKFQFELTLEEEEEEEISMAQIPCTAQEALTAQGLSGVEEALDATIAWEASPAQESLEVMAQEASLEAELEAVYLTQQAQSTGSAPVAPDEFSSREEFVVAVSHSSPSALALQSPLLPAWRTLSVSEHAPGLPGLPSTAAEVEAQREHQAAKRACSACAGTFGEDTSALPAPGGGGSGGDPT
Also: assay procedure not described here.

Structure (SMILES) | AC50 (Thromboxane A2 receptor) | AC50 [1] | AC50 (Acetylcholinesterase) | AC50 (B2 bradykinin receptor) | AC50 (D(3) dopamine receptor) | AC50 [2] | AC50 [3] | AC50 [4] | AC50 [5] | AC50 [6]
CCCc1nc2c(C)cc(-c3nc4ccccc4n3C)cc2n1Cc1ccc(-c2ccccc2C(=O)O)cc1 | > 1 µM | > 30 µM | > 30 µM | > 30 µM | > 30 µM | > 30 µM | > 30 µM | > 30 µM | > 30 µM | 13.5 µM
CC(C)NC(=N)NC(=N)Nc1ccc(Cl)c(Cl)c1 [CHLORPROGUANIL] | > 10 µM | 3.82 µM | > 30 µM |  | > 30 µM | 7.9 µM | > 30 µM | 29.7 µM | > 30 µM | > 30 µM
C[N+](C)(C)CCOP(=O)(O)OP(=O)([O-])OC[C@H]1O[C@@H](n2ccc(N)nc2=O)[C@H](O)[C@@H]1O [CITICOLINE] | > 30 µM | > 30 µM | > 30 µM |  | > 30 µM | > 30 µM | > 30 µM | > 30 µM | > 30 µM | > 30 µM
O=C(O)Cc1ccccc1Oc1ccc(Cl)cc1Cl [FENCLOFENAC] | > 30 µM | > 30 µM | > 30 µM | > 30 µM | > 10 µM | > 30 µM | > 30 µM | > 30 µM | > 30 µM | > 30 µM
Cc1ccc(C)c(OCCCC(C)(C)C(=O)O)c1 [GEMFIBROZIL] | > 30 µM | > 30 µM | > 30 µM | > 30 µM | > 10 µM | > 30 µM | > 30 µM | > 30 µM | > 30 µM | > 30 µM
COc1ccccc1OC1(C)OC(=O)c2ccccc2O1 (configuration not stated) [GUAIMESAL] | > 30 µM | > 30 µM | > 30 µM | > 30 µM |  |  | > 30 µM | > 30 µM | > 30 µM | > 30 µM
COc1cc(C(C)=O)ccc1OCCCN1CCC(c2noc3cc(F)ccc23)CC1 [ILOPERIDONE] | > 10 µM | 0.11 µM | 15.9 µM |  | 0.0373 µM | 0.803 µM | > 30 µM | 2.18 µM | > 30 µM | > 30 µM
CC(CN1c2ccccc2Sc2ccccc21)N(C)C (configuration not stated) [PROMETHAZINE] | > 3 µM | 0.7 µM | > 30 µM | > 30 µM | 0.28 µM | 0.5 µM | > 30 µM | 0.03 µM | > 30 µM | > 30 µM
CC(C)C[C@H](NC(=O)[C@@H](O)[C@H](N)Cc1ccccc1)C(=O)O [UBENIMEX] | > 30 µM | > 30 µM | > 30 µM |  | > 30 µM | > 30 µM | > 30 µM | > 30 µM | > 30 µM | > 30 µM
O=C1Cc2cc(CCN3CCN(c4nsc5ccccc45)CC3)c(Cl)cc2N1 [ZIPRASIDONE] | > 30 µM | 0.003 µM | > 30 µM | > 30 µM |  |  | > 30 µM | 7.14 µM | > 30 µM | > 30 µM
